Entries after “also recorded” stand apart in the source; their conditions may differ.
System: ONC-T18
Experiment: Fatty acid production antagonist supplementation of ONC-T18 culture, fatty acid profile by FAME GC-FID
Type: cell-based, Thraustochytrium sp. ONC-T18
Method: Media containing 25 g/l sea salt and 1 g/l yeast extract was autoclaved at 120° C. for 20 minutes. Sterilized glucose was added to the media at a concentration of 9 g/l. Sethoxydim (Supleco) was dissolved in dimethyl sulfoxide at a concentration of 5 mg/ml was then added to the media at to represent a final concentration of 100 µM. 1 ml of a 24 hour pre-culture of ONC-T 18 that had been cultured in the same media was added. Culturing was carried out in a shaker (130 rpm) for four days at room temperature. After the incubation period, cells were harvested by centrifugation at 4300 rpm for 10 minutes. The cell pellets were then freeze-dried, weighed and the oil was extracted from the cells.
(§1) The lipids were extracted and derivatized to fatty acid methyl esters (FAME) for gas chromatography analysis (GC). Transesterification and extraction was done using 200 mg freeze dried cells, with C19:0 as internal standard, added transesterification reaction mix (methanol:hydrochloric acid:chloroform, 10:1:1) mixed and heated at 90° C. for 2 hours, then allowed to cool at room temperature. FAMEs were extracted by adding 1 ml water, and 2 ml hexane:chloroform (4:1), and allow organic and aqueous phases to separate. The organic layer was extracted and treated with 0.5 g of anhydrous sodium sulfate to remove particulates and residual water. The organic solvents were evaporated under a stream of argon. The FAMEs were re-suspended in 5 ml of iso-octane and analyzed by GC-FID. The percent conversion was calculated by dividing the product produced by the sum of (the product produced plus the substrate added) and then multiplying by 100.
Media containing 6 g/l sea salt, 2 g/l yeast extract, and 8 g/l L-glutamic acid monosodium salt hydrate was autoclaved at 120° C. for 20 minutes. Sterilized D+-glucose was then added to this media at a concentration of 40 g/l. Cerulenin dissolved in ethanol at a concentration of 5 mg/ml was added to 250 ml flask and the solvent was evaporated for 1 hour prior to adding the media to the flask. The amount of cerulenin in the flask represented a final concentration of 20 mg/l. ONC-T18 was then added to the medium from a plate culture and culturing occurred in a shaker (130 rpm) at room temperature for four days. After the incubation period, cells were harvested by centrifugation at 4300 rpm for 10 minutes, washed once with distilled water, and then centrifuged again at 4300 rpm for 10 minutes. The cell pellets were then freeze-dried, weighed and the oil was extracted from the cells.
as §1, with “produced+the” for “produced plus the”
Media containing 6 g/l sea salt, 2 g/l yeast extract, and 8 g/l L-glutamic acid monosodium salt hydrate was autoclaved at 120° C. for 20 minutes. Sterilized D+-glucose wad then added at a concentration of 5 g/l or was not added to the media. Oleic acid was added to the media to represent a final concentration of 2 ml/l. […]

[1] = presence of the antagonist, oleic acid without glucose
[2] = oleic acid in combination with glucoase

C/C=C/C/C=C/CCC(=O)[C@H]1O[C@H]1C(N)=O [cerulenin]
C16:0 content in ONC-T18, change versus control (in words) (antagonist added to medium): increases
DHA accumulated in ONC-T18, change versus control (in words) (antagonist added to medium): increases; also recorded: increase in the content and proportion of DHA
adrenic acid, lipid as percentage of total fatty acid [1]: 0.00%
arachidic acid, lipid as percentage of total fatty acid [1]: 0.41%
arachidonic acid, lipid as percentage of total fatty acid [1]: 0.30%
behenic acid, lipid as percentage of total fatty acid [1]: 0.11%
docosadienoic acid, lipid as percentage of total fatty acid [1]: 0.14%
docosahexaenoic acid, lipid as percentage of total fatty acid [1]: 19.97%
docosapentaenoic acid n-3, lipid as percentage of total fatty acid [1]: 0.23%
docosapentaenoic acid n-6, lipid as percentage of total fatty acid [1]: 5.83%
eicosadienoic acid, lipid as percentage of total fatty acid [1]: 0.17%
eicosapentaenoic acid, lipid as percentage of total fatty acid [1]: 1.17%
eicosatetraenoic acid, lipid as percentage of total fatty acid [1]: 0.36%
eicosatrienoic acid, lipid as percentage of total fatty acid [1]: 0.00%
eicosenoic acid, lipid as percentage of total fatty acid [1]: 0.19%
heneicosapentaenoic acid, lipid as percentage of total fatty acid [1]: 1.24%
hexacosanoic acid, lipid as percentage of total fatty acid [1]: 0.23%
homo-gamma-linolenic acid, lipid as percentage of total fatty acid [1]: 0.20%
lignoceric acid, lipid as percentage of total fatty acid [1]: 0.00%
margaric acid, lipid as percentage of total fatty acid [1]: 0.74%
myristic acid, lipid as percentage of total fatty acid [1]: 11.03%
myristoleic acid, lipid as percentage of total fatty acid [1]: 0.00%
nervonic acid, lipid as percentage of total fatty acid [1]: 0.00%
oleic acid, lipid as percentage of total fatty acid [1]: 0.29%
palmitic acid, lipid as percentage of total fatty acid [1]: 48.98%
palmitoleic acid, lipid as percentage of total fatty acid [1]: 2.22%
pentadecanoic acid, lipid as percentage of total fatty acid [1]: 3.23%
pentadecenoic acid, lipid as percentage of total fatty acid [1]: 0.10%
stearic acid, lipid as percentage of total fatty acid [1]: 1.86%
vaccenic acid, lipid as percentage of total fatty acid [1]: 1.24%

CCCCCCCC/C=C\CCCCCCCC(=O)O [oleic acid]
DHA accumulated in ONC-T18, change versus control (in words) (antagonist added to medium): most of the oleic acid was converted into DHA; also recorded: more DHA content was observed; also recorded: increase in the content and proportion of DHA
EPA in ONC-T18 fatty acid profile, change versus control (in words) (antagonist added to medium): elevation of the EPA content; also recorded: elevated level of EPA
adrenic acid, lipid as percentage of total fatty acid [2]: 0.28%
arachidic acid, lipid as percentage of total fatty acid [2]: 0.34%
arachidonic acid, lipid as percentage of total fatty acid [2]: 0.46%
behenic acid, lipid as percentage of total fatty acid [2]: 0.00%
docosadienoic acid, lipid as percentage of total fatty acid [2]: 0.43%
docosahexaenoic acid, lipid as percentage of total fatty acid [2]: 24.65%
docosapentaenoic acid n-3, lipid as percentage of total fatty acid [2]: 0.39%
docosapentaenoic acid n-6, lipid as percentage of total fatty acid [2]: 6.46%
eicosadienoic acid, lipid as percentage of total fatty acid [2]: 0.36%
eicosapentaenoic acid, lipid as percentage of total fatty acid [2]: 2.60%
eicosatetraenoic acid, lipid as percentage of total fatty acid [2]: 0.24%
eicosatrienoic acid, lipid as percentage of total fatty acid [2]: 0.00%
eicosenoic acid, lipid as percentage of total fatty acid [2]: 0.30%
heneicosapentaenoic acid, lipid as percentage of total fatty acid [2]: 0.79%
hexacosanoic acid, lipid as percentage of total fatty acid [2]: 0.00%
homo-gamma-linolenic acid, lipid as percentage of total fatty acid [2]: 0.30%
lignoceric acid, lipid as percentage of total fatty acid [2]: 0.00%
margaric acid, lipid as percentage of total fatty acid [2]: 0.17%
myristic acid, lipid as percentage of total fatty acid [2]: 8.04%
myristoleic acid, lipid as percentage of total fatty acid [2]: 0.00%
nervonic acid, lipid as percentage of total fatty acid [2]: 0.00%
oleic acid, lipid as percentage of total fatty acid [2]: 9.49%
palmitic acid, lipid as percentage of total fatty acid [2]: 33.18%
palmitoleic acid, lipid as percentage of total fatty acid [2]: 4.22%
pentadecanoic acid, lipid as percentage of total fatty acid [2]: 0.73%
pentadecenoic acid, lipid as percentage of total fatty acid [2]: 0.00%
stearic acid, lipid as percentage of total fatty acid [2]: 1.60%
vaccenic acid, lipid as percentage of total fatty acid [2]: 4.45%
adrenic acid, lipid as percentage of total fatty acid [1]: 0.60%
arachidic acid, lipid as percentage of total fatty acid [1]: 0.00%
arachidonic acid, lipid as percentage of total fatty acid [1]: 0.72%
behenic acid, lipid as percentage of total fatty acid [1]: 0.00%
docosadienoic acid, lipid as percentage of total fatty acid [1]: 0.68%
docosahexaenoic acid, lipid as percentage of total fatty acid [1]: 33.16%
docosapentaenoic acid n-3, lipid as percentage of total fatty acid [1]: 0.39%
docosapentaenoic acid n-6, lipid as percentage of total fatty acid [1]: 7.58%
eicosadienoic acid, lipid as percentage of total fatty acid [1]: 0.51%
eicosapentaenoic acid, lipid as percentage of total fatty acid [1]: 5.47%
eicosatetraenoic acid, lipid as percentage of total fatty acid [1]: 0.00%
eicosatrienoic acid, lipid as percentage of total fatty acid [1]: 0.00%
eicosenoic acid, lipid as percentage of total fatty acid [1]: 0.00%
heneicosapentaenoic acid, lipid as percentage of total fatty acid [1]: 0.20%
hexacosanoic acid, lipid as percentage of total fatty acid [1]: 0.00%
homo-gamma-linolenic acid, lipid as percentage of total fatty acid [1]: 0.61%
lignoceric acid, lipid as percentage of total fatty acid [1]: 0.00%
margaric acid, lipid as percentage of total fatty acid [1]: 0.28%
myristic acid, lipid as percentage of total fatty acid [1]: 1.38%
myristoleic acid, lipid as percentage of total fatty acid [1]: 0.00%
nervonic acid, lipid as percentage of total fatty acid [1]: 0.00%
oleic acid, lipid as percentage of total fatty acid [1]: 25.36%
palmitic acid, lipid as percentage of total fatty acid [1]: 16.67%
palmitoleic acid, lipid as percentage of total fatty acid [1]: 1.06%
pentadecanoic acid, lipid as percentage of total fatty acid [1]: 0.49%
pentadecenoic acid, lipid as percentage of total fatty acid [1]: 0.00%
stearic acid, lipid as percentage of total fatty acid [1]: 1.56%
vaccenic acid, lipid as percentage of total fatty acid [1]: 2.68%

COc1cc(CNC(=O)CCCC/C=C/C(C)C)ccc1O [capsaicin]
C16:0 content in ONC-T18, change versus control (in words) (antagonist added to medium): decrease in the content of C16:0
C16:1 content in ONC-T18, change versus control (in words) (antagonist added to medium): increase the content of C16:1
adrenic acid, lipid as percentage of total fatty acid [1]: 0.46%
arachidic acid, lipid as percentage of total fatty acid [1]: 0.20%
arachidonic acid, lipid as percentage of total fatty acid [1]: 0.78%
behenic acid, lipid as percentage of total fatty acid [1]: 0.00%
docosadienoic acid, lipid as percentage of total fatty acid [1]: 0.17%
docosahexaenoic acid, lipid as percentage of total fatty acid [1]: 16.86%
docosapentaenoic acid n-3, lipid as percentage of total fatty acid [1]: 0.31%
docosapentaenoic acid n-6, lipid as percentage of total fatty acid [1]: 5.19%
eicosadienoic acid, lipid as percentage of total fatty acid [1]: 0.23%
eicosapentaenoic acid, lipid as percentage of total fatty acid [1]: 1.38%
eicosatetraenoic acid, lipid as percentage of total fatty acid [1]: 0.27%
eicosatrienoic acid, lipid as percentage of total fatty acid [1]: 0.00%
eicosenoic acid, lipid as percentage of total fatty acid [1]: 0.00%
heneicosapentaenoic acid, lipid as percentage of total fatty acid [1]: 0.00%
hexacosanoic acid, lipid as percentage of total fatty acid [1]: 0.00%
homo-gamma-linolenic acid, lipid as percentage of total fatty acid [1]: 0.22%
lignoceric acid, lipid as percentage of total fatty acid [1]: 0.00%
margaric acid, lipid as percentage of total fatty acid [1]: 0.19%
myristic acid, lipid as percentage of total fatty acid [1]: 21.86%
myristoleic acid, lipid as percentage of total fatty acid [1]: 0.28%
nervonic acid, lipid as percentage of total fatty acid [1]: 0.00%
oleic acid, lipid as percentage of total fatty acid [1]: 0.00%
palmitic acid, lipid as percentage of total fatty acid [1]: 24.19%
palmitoleic acid, lipid as percentage of total fatty acid [1]: 17.98%
pentadecanoic acid, lipid as percentage of total fatty acid [1]: 0.91%
pentadecenoic acid, lipid as percentage of total fatty acid [1]: 0.23%
stearic acid, lipid as percentage of total fatty acid [1]: 1.60%
vaccenic acid, lipid as percentage of total fatty acid [1]: 6.67%
